Measurements reported in patent publication US20200079819A1, “Use of a Vaccine Targeting a Cryptic Tert Epitope, for Treating Lung Cancer in a HLA-A*0201-Positive Never-Smoker or Light-Former Smoker Patient” (Vaxon Biotech, priority 2017, published 2020).
No end group written: not given here.

Tested on: HLA-A*0201 positive patients with NSCLC expressing TERT
Test: Vx-001-201 randomized double blind phase IIb clinical trial (OS, TTF, 12 months survival)
Format: in vivo, human
Details: for OS (months) / 12 months OS / 12 months OS (%) / Median TTF (months) / Median survival (months): Vx-001 arm; for HR (OS) / HR (TTF): Vx-001 vs placebo
Text: The Vx-001-201 study is a randomized, double blind multicenter study done in 70 centers in France, Germany, Spain, Italy, Greece, Poland, Romania and Czech Republic. Key eligibility criteria were a) non small cell lung cancer (NSCLC), b) stage IV or recurrent stage I-III, c) disease control after platinum based first line chemotherapy according to RECIST 1.1 criteria, d) HLA-A*0201 positivity, e) tumors expressing TElomerase Reverse Transcriptase (TERT), f) ECOG 0 or 1 g) absence of brain metastasis.
a) Principal endpoint: overall survival (OS) measured from randomization
b) Secondary endpoints: • Time to Treatment Failure (TTF) measured from randomization • OS at 12 months
Patients who fulfilled all inclusion criteria were randomized within 4 weeks after the end of first line chemotherapy.
The vaccination protocol consisted in six vaccinations at three weeks interval. The optimized Vx-001/TERT572Y was used in the first two vaccinations and the native Vx-001/TERT572 in the following four vaccinations. Patients who continued controlling their disease after the sixth vaccination received boost vaccination with the Vx-001/TERT572 every three months. Vaccination was stopped at disease progression (FIG. 1).
The primary and secondary endpoints were analysed in the Full Analysis Set composed of all patients who fulfilled the […] five main criteria a) NSCLC, b) stage IV or recurrent stage I-III, and c) disease control after first line chemotherapy, d) HLA-A*0201 positivity and e) TERT expressing tumors.
We used the Kaplan-Meier method to estimate OS and TTF in each arm and a Cox proportional hazards regression model to estimate Hazard Ratio (HR) relating OS and TTF to the treatment effect.

[1] = never-smokers and light-smokers (≤25 years, stopped or not), SQ (n = 14)
[2] = never-smokers and light-smokers (≤25 years, stopped or not), Stage IV (n = 51)
[3] = never-smokers and light-smokers (≤25 years, stopped or not), natural immunity No (n = 37)
[4] = never-smokers and light-smokers (≤25 years, stopped or not), natural immunity Yes (n = 15)
[5] = never-smokers and light-smokers (≤25 years, stopped or not), response to treatment OS (n = 28)
[6] = never-smokers and light-smokers (≤25 years, stopped or not), response to treatment SD (n = 32)
[7] = never-smokers or former light-smokers (≤25 years), <65 years (n = 24)
[8] = never-smokers or former light-smokers (≤25 years), >65 years (n = 31)
[9] = never-smokers or former light-smokers (≤25 years), CARBO (n = 37)
[10] = never-smokers or former light-smokers (≤25 years), CDDP (n = 18)
[11] = never-smokers or former light-smokers (≤25 years), Female (n = 23)
[12] = never-smokers or former light-smokers (≤25 years), MH + NSQ (n = 42)
[13] = never-smokers or former light-smokers (≤25 years), Male (n = 32)
[14] = never-smokers or former light-smokers (≤25 years), SQ (n = 13)
[15] = never-smokers or former light-smokers (≤25 years), natural immunity No (n = 33)
[16] = never-smokers or former light-smokers (≤25 years), natural immunity Yes (n = 14)
[17] = never-smokers or former light-smokers (≤25 years), response to chemotherapy OR (n = 26)
[18] = never-smokers or former light-smokers (≤25 years), response to chemotherapy SD (n = 29)
[19] = never-smokers or former light-smokers (≤25 years), stable disease SD after first-line chemotherapy (n = 29)

Vx-001: vaccine composed of two nine-amino-acid peptides, TERT572 (SEQ ID No: 1) and TERT572Y (SEQ ID No: 2), administered separately with adjuvant Montanide ISA51 VG (chain 1 RLFFYRKSV; chain 2 YLFFYRKSV; not fully specified)
OS (months) [1]: 14.1 months
HR (OS) [1]: 0.81
12 months OS [2]: 69.2%
OS (months) [2]: 16.2 months
HR (OS) [2]: 0.44
12 months OS [3]: 83.0%
OS (months) [3]: 20.7 months
HR (OS) [3]: 0.27
12 months OS [4]: 66.0%
OS (months) [4]: 15.3 months
HR (OS) [4]: 0.87
12 months OS [5]: 63.6%
OS (months) [5]: 15.3 months
HR (OS) [5]: 0.91
12 months OS [6]: 75.0%
OS (months) [6]: 24.7 months
HR (OS) [6]: 0.34
12 months OS (%) [7]: 77%
Median TTF (months) [7]: 2.9 months
Median survival (months) [7]: 20.2 months
HR (OS) [7]: 0.46
HR (TTF) [7]: 1.07
12 months OS (%) [8]: 69.2%
Median TTF (months) [8]: 4.6 months
Median survival (months) [8]: 15.3 months
HR (OS) [8]: 0.64
HR (TTF) [8]: 0.71
12 months OS (%) [9]: 64.7%
Median TTF (months) [9]: 2.9 months
Median survival (months) [9]: 15.3 months
HR (OS) [9]: 0.63
HR (TTF) [9]: 0.90
12 months OS (%) [10]: 88.8%
Median TTF (months) [10]: 5.6 months
Median survival (months) [10]: 24.7 months
HR (OS) [10]: 0.50
HR (TTF) [10]: 0.87
12 months OS (%) [11]: 66.6%
Median TTF (months) [11]: 4.2 months
Median survival (months) [11]: 13.3 months
HR (OS) [11]: 0.89
HR (TTF) [11]: 0.98
12 months OS (%) [12]: 73.7%
Median TTF (months) [12]: 4.2 months
Median survival (months) [12]: 16.2 months
HR (OS) [12]: 0.53
HR (TTF) [12]: 0.89
12 months OS (%) [13]: 78.6%
Median TTF (months) [13]: 2.9 months
Median survival (months) [13]: 24.7 months
HR (TTF) [13]: 0.82
12 months OS (%) [14]: 71.4%
Median TTF (months) [14]: 2.9 months
Median survival (months) [14]: 14.1 months
HR (OS) [14]: 0.89
HR (TTF) [14]: 0.81
12 months OS (%) [15]: 82.3%
Median TTF (months) [15]: 5.6 months
Median survival (months) [15]: 20.7 months
HR (TTF) [15]: 0.43
12 months OS (%) [16]: 66.6%
Median TTF (months) [16]: 2.4 months
Median survival (months) [16]: 15.3 months
HR (OS) [16]: 0.90
HR (TTF) [16]: 1.86
12 months OS (%) [17]: 72.7%
Median TTF (months) [17]: 2.8 months
Median survival (months) [17]: 15.3 months
HR (OS) [17]: 0.96
HR (TTF) [17]: 1.33
Median TTF (months) [18]: 3.6 months
HR (TTF) [18]: 0.58
12 months OS (%) [19]: 73.3%
Median survival (months) [19]: 24.7 months
Effect on OS (in words) (never/light-smokers (≤25 years, stopped or not), Table 7 population): significantly prolonged OS
